Legend:
Assay in all cases: Ambit kinase profiling, competition binding
FLT1 = biological target: T1, FLT1 (Homo sapiens, UniProt P17948); settings: compound concentration 10 uM, read-out: Percent Competition
T1 construct: purchased Ambit Biosciences (KINOMEscan)
From the text: (§1) Supplement pone.0044653.s004.xls, sheet "Compound 122" | column: Percent Competition

[1] = biological target: T2, RPS6KA4(Kin.Dom.1-N-terminal) (Homo sapiens, UniProt O75676); settings: compound concentration 10 uM, read-out: Percent Competition
T2 construct: RPS6KA4(Kin.Dom.1-N-terminal); purchased Ambit Biosciences (KINOMEscan)
From the text: as §1

LIMK1 = biological target: T3, LIMK1 (Homo sapiens, UniProt P53667); settings: compound concentration 10 uM, read-out: Percent Competition
T3 construct: purchased Ambit Biosciences (KINOMEscan)
From the text: as §1

MEK2 = biological target: T4, MEK2 (Homo sapiens, UniProt P36507); settings: compound concentration 10 uM, read-out: Percent Competition
T4 construct: purchased Ambit Biosciences (KINOMEscan)
From the text: as §1

SgK110 = biological target: T5, SgK110 (Homo sapiens, UniProt P0C264); settings: compound concentration 10 uM, read-out: Percent Competition
T5 construct: purchased Ambit Biosciences (KINOMEscan)
From the text: as §1

PIK3CD = biological target: T6, PIK3CD (Homo sapiens, UniProt O00329); settings: compound concentration 10 uM, read-out: Percent Competition
T6 construct: purchased Ambit Biosciences (KINOMEscan)
T6 sequence (O00329 whole entry): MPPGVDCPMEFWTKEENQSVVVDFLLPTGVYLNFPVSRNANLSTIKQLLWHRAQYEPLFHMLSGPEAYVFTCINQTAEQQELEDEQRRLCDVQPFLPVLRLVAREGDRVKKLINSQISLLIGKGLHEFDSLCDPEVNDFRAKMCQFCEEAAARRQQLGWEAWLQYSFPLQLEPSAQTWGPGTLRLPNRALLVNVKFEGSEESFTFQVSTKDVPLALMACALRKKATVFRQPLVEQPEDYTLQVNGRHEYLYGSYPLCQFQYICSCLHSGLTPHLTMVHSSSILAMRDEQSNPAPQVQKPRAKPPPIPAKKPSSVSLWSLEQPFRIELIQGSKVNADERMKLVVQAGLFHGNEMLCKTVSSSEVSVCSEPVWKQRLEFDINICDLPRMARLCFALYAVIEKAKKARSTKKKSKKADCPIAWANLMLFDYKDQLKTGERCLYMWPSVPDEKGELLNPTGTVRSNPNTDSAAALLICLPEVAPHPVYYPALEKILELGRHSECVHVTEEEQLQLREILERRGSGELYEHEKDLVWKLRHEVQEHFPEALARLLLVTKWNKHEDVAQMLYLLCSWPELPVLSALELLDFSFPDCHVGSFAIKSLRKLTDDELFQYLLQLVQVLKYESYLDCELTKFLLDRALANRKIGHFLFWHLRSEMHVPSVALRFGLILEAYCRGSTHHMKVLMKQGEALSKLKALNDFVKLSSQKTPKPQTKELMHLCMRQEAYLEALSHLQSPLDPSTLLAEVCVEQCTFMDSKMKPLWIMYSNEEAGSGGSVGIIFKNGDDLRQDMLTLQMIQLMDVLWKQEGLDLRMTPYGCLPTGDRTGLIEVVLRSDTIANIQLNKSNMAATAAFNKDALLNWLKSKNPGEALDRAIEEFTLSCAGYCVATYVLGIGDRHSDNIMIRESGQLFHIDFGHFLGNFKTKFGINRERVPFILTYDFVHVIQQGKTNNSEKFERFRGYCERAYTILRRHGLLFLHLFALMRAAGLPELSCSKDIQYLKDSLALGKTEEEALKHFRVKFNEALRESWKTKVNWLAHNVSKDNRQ
From the text: as §1

PKMYT1 = biological target: T7, PKMYT1 (Homo sapiens, UniProt Q99640); settings: compound concentration 10 uM
T7 construct: purchased Ambit Biosciences (KINOMEscan)
From the text: as §1

PDGFRB = biological target: T8, PDGFRB (Homo sapiens, UniProt P09619); settings: compound concentration 10 uM, read-out: Percent Competition
T8 construct: purchased Ambit Biosciences (KINOMEscan)
From the text: as §1

ANKK1 = biological target: T9, ANKK1 (Homo sapiens, UniProt Q8NFD2); settings: compound concentration 10 uM, read-out: Percent Competition
T9 construct: purchased Ambit Biosciences (KINOMEscan)
From the text: as §1

FGR = biological target: T10, FGR (Homo sapiens, UniProt P09769); settings: compound concentration 10 uM, read-out: Percent Competition
T10 construct: purchased Ambit Biosciences (KINOMEscan)
From the text: as §1

MEK1 = biological target: T11, MEK1 (Homo sapiens, UniProt Q02750); settings: compound concentration 10 uM, read-out: Percent Competition
T11 construct: purchased Ambit Biosciences (KINOMEscan)
From the text: as §1

PFTAIRE2 = biological target: T12, PFTAIRE2 (Homo sapiens, UniProt Q96Q40); settings: compound concentration 10 uM, read-out: Percent Competition
T12 construct: purchased Ambit Biosciences (KINOMEscan)
T12 sequence (Q96Q40 whole entry): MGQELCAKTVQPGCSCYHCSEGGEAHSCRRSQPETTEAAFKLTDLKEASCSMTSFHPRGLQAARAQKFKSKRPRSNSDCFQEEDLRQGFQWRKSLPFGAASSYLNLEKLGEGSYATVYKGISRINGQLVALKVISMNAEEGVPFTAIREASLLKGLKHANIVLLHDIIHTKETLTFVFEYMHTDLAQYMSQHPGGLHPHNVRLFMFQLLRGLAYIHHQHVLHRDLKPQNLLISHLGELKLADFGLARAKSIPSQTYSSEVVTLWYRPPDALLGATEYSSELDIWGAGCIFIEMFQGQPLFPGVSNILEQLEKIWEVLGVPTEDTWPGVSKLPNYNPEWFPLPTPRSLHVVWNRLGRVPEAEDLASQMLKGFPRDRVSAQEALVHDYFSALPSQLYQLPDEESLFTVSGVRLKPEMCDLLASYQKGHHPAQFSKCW
From the text: as §1

PKN1 = biological target: T13, PKN1 (Homo sapiens, UniProt Q16512); settings: compound concentration 10 uM, read-out: Percent Competition
T13 construct: purchased Ambit Biosciences (KINOMEscan)
From the text: as §1

TRKC = biological target: T14, TRKC (Homo sapiens, UniProt Q16288); settings: compound concentration 10 uM, read-out: Percent Competition
T14 construct: purchased Ambit Biosciences (KINOMEscan)
T14 sequence (Q16288 32-839): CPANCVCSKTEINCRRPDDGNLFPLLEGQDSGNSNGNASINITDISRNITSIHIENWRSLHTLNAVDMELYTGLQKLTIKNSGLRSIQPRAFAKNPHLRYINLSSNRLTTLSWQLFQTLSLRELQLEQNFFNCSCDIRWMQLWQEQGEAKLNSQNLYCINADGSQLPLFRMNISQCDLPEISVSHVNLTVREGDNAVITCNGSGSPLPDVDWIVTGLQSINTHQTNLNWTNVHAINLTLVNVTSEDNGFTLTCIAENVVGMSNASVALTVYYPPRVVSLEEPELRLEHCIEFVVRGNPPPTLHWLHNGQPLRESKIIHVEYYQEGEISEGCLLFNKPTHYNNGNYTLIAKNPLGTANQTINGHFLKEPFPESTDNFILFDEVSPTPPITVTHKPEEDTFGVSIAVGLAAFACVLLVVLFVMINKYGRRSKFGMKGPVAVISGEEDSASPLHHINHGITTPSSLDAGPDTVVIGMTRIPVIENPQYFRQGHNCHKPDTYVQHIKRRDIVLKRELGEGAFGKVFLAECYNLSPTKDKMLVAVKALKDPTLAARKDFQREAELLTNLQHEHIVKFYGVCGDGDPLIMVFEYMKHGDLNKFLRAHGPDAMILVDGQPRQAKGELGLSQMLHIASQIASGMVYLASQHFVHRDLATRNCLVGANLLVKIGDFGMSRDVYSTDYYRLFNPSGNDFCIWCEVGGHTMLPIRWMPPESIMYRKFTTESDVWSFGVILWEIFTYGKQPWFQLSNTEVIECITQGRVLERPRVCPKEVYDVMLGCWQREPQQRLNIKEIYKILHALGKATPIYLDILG
From the text: as §1

DAPK2 = biological target: T15, DAPK2 (Homo sapiens, UniProt Q9UIK4); settings: compound concentration 10 uM, read-out: Percent Competition
T15 construct: purchased Ambit Biosciences (KINOMEscan)
From the text: as §1

PAK1 = biological target: T16, PAK1 (Homo sapiens, UniProt Q13153); settings: compound concentration 10 uM, read-out: Percent Competition
T16 construct: purchased Ambit Biosciences (KINOMEscan)
From the text: as §1

MYO3A = biological target: T17, MYO3A (Homo sapiens, UniProt Q8NEV4); settings: compound concentration 10 uM, read-out: Percent Competition
T17 construct: purchased Ambit Biosciences (KINOMEscan)
From the text: as §1

[2] = biological target: T18, RPS6KA3(Kin.Dom.1-N-terminal) (Homo sapiens, UniProt P51812); settings: compound concentration 10 uM, read-out: Percent Competition
T18 construct: RPS6KA3(Kin.Dom.1-N-terminal); purchased Ambit Biosciences (KINOMEscan)
T18 sequence (P51812 1-397 limits assumed): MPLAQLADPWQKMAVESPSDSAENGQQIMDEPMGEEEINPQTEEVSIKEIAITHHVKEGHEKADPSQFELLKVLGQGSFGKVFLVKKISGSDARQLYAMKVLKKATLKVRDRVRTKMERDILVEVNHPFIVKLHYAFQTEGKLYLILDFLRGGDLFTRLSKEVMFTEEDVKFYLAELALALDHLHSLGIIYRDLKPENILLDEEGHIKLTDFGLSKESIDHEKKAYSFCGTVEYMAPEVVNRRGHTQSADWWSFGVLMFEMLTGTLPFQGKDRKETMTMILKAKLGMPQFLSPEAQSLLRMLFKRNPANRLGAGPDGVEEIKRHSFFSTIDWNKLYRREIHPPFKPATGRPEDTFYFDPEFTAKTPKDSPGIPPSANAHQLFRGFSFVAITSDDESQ
From the text: as §1

MAP4K5 = biological target: T19, MAP4K5 (Homo sapiens, UniProt Q9Y4K4); settings: compound concentration 10 uM, read-out: Percent Competition
T19 construct: purchased Ambit Biosciences (KINOMEscan)
From the text: as §1

DCAMKL2 = biological target: T20, DCAMKL2 (Homo sapiens, UniProt Q8N568); settings: compound concentration 10 uM, read-out: Percent Competition
T20 construct: purchased Ambit Biosciences (KINOMEscan)
T20 sequence (Q8N568 whole entry): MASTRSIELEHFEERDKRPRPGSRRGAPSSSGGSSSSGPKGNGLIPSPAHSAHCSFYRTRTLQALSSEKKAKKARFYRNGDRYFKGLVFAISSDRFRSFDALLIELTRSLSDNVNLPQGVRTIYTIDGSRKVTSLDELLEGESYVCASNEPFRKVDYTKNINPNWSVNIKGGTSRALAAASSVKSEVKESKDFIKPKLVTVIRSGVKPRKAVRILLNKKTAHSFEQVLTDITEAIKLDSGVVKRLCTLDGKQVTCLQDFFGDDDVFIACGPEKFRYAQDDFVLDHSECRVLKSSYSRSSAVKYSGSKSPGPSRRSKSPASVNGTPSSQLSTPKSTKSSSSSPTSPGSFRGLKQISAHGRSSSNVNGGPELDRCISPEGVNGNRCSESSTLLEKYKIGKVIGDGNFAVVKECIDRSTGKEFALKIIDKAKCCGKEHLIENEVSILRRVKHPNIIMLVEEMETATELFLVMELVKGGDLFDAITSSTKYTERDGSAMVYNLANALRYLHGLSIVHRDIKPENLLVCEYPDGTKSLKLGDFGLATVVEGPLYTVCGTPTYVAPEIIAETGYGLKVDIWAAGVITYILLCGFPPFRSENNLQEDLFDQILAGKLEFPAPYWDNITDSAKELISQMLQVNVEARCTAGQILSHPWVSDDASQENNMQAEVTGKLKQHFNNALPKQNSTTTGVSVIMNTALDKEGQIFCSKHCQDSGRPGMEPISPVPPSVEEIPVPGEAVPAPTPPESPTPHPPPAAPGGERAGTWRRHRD
From the text: as §1

TLK1 = biological target: T21, TLK1 (Homo sapiens, UniProt Q9UKI8); settings: compound concentration 10 uM, read-out: Percent Competition
T21 construct: purchased Ambit Biosciences (KINOMEscan)
T21 sequence (Q9UKI8 whole entry): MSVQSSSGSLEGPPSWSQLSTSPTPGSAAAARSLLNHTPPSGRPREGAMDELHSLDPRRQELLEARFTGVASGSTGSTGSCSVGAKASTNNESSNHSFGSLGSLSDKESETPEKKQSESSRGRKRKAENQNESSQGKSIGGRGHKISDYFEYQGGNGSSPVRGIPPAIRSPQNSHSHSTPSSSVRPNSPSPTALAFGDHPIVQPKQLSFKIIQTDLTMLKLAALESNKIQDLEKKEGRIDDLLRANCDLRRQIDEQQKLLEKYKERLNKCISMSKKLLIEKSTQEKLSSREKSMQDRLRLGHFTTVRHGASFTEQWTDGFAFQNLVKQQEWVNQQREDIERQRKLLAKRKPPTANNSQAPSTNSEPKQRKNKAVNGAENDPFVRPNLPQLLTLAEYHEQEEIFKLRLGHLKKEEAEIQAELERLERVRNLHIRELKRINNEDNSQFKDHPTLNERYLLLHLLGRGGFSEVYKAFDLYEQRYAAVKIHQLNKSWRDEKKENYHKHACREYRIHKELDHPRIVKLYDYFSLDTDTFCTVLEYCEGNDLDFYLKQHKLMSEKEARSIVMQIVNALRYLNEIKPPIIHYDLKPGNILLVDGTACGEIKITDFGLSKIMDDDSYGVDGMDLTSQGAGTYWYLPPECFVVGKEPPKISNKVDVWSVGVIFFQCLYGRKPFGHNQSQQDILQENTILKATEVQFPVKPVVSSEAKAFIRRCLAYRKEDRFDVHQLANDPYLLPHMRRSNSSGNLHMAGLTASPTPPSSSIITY
From the text: as §1

MLK2 = biological target: T22, MLK2 (Homo sapiens, UniProt Q02779); settings: compound concentration 10 uM, read-out: Percent Competition
T22 construct: purchased Ambit Biosciences (KINOMEscan)
From the text: as §1

IKK-alpha = biological target: T23, IKK-alpha (Homo sapiens, UniProt O15111); settings: compound concentration 10 uM, read-out: Percent Competition
T23 construct: purchased Ambit Biosciences (KINOMEscan)
From the text: as §1

EPHA2 = biological target: T24, EPHA2 (Homo sapiens, UniProt P29317); settings: compound concentration 10 uM, read-out: Percent Competition
T24 construct: purchased Ambit Biosciences (KINOMEscan)
From the text: as §1

[3] = biological target: T25, JAK3(JH1domain-catalytic) (Homo sapiens, UniProt P52333); settings: compound concentration 10 uM, read-out: Percent Competition
T25 construct: JAK3(JH1domain-catalytic); purchased Ambit Biosciences (KINOMEscan)
From the text: as §1

LKB1 = biological target: T26, LKB1 (Homo sapiens, UniProt Q15831); settings: compound concentration 10 uM, read-out: Percent Competition
T26 construct: purchased Ambit Biosciences (KINOMEscan)
T26 sequence (Q15831 whole entry): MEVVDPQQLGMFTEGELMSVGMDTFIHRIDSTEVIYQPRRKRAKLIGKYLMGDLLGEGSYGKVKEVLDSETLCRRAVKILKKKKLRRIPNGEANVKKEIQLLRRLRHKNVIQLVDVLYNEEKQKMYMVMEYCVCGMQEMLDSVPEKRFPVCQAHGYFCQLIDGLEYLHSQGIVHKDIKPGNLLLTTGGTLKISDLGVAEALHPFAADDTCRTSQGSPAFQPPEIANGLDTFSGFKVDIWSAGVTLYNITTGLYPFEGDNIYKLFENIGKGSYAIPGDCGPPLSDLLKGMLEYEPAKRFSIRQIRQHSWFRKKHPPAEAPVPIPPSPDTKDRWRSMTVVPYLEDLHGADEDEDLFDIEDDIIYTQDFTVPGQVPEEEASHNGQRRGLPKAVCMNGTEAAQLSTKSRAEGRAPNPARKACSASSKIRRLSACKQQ
From the text: as §1

KIT(V559D,V654A) = biological target: T27, KIT(V559D,V654A) (Homo sapiens, UniProt P10721, V559D/V654A); settings: compound concentration 10 uM, read-out: Percent Competition
T27 construct: purchased Ambit Biosciences (KINOMEscan)
From the text: as §1

RIPK1 = biological target: T28, RIPK1 (Homo sapiens, UniProt Q13546); settings: compound concentration 10 uM, read-out: Percent Competition
T28 construct: purchased Ambit Biosciences (KINOMEscan)
From the text: as §1

TNK2 = biological target: T29, TNK2 (Homo sapiens, UniProt Q07912); settings: compound concentration 10 uM, read-out: Percent Competition
T29 construct: purchased Ambit Biosciences (KINOMEscan)
From the text: as §1

FLT3(N841I) = biological target: T30, FLT3(N841I) (Homo sapiens, UniProt P36888, N841I); settings: compound concentration 10 uM, read-out: Percent Competition
T30 construct: purchased Ambit Biosciences (KINOMEscan)
From the text: as §1

ULK2 = biological target: T31, ULK2 (Homo sapiens, UniProt Q8IYT8); settings: compound concentration 10 uM, read-out: Percent Competition
T31 construct: purchased Ambit Biosciences (KINOMEscan)
From the text: as §1

MAP3K4 = biological target: T32, MAP3K4 (Homo sapiens, UniProt Q9Y6R4); settings: compound concentration 10 uM, read-out: Percent Competition
T32 construct: purchased Ambit Biosciences (KINOMEscan)
From the text: as §1

ERK5 = biological target: T33, ERK5 (Homo sapiens, UniProt Q13164); settings: compound concentration 10 uM, read-out: Percent Competition
T33 construct: purchased Ambit Biosciences (KINOMEscan)
From the text: as §1

MLK3 = biological target: T34, MLK3 (Homo sapiens, UniProt Q16584); settings: compound concentration 10 uM
T34 construct: purchased Ambit Biosciences (KINOMEscan)
From the text: as §1

TYRO3 = biological target: T35, TYRO3 (Homo sapiens, UniProt Q06418); settings: compound concentration 10 uM, read-out: Percent Competition
T35 construct: purchased Ambit Biosciences (KINOMEscan)
From the text: as §1

HIPK1 = biological target: T36, HIPK1 (Homo sapiens, UniProt Q86Z02); settings: compound concentration 10 uM, read-out: Percent Competition
T36 construct: purchased Ambit Biosciences (KINOMEscan)
From the text: as §1

MAPKAPK2 = biological target: T37, MAPKAPK2 (Homo sapiens, UniProt P49137); settings: compound concentration 10 uM, read-out: Percent Competition
T37 construct: purchased Ambit Biosciences (KINOMEscan)
From the text: as §1

NEK2 = biological target: T38, NEK2 (Homo sapiens, UniProt P51955); settings: compound concentration 10 uM, read-out: Percent Competition
T38 construct: purchased Ambit Biosciences (KINOMEscan)
From the text: as §1

FER = biological target: T39, FER (Homo sapiens, UniProt P16591); settings: compound concentration 10 uM, read-out: Percent Competition
T39 construct: purchased Ambit Biosciences (KINOMEscan)
From the text: as §1

CSNK2A1 = biological target: T40, CSNK2A1 (Homo sapiens, UniProt P68400); settings: compound concentration 10 uM, read-out: Percent Competition
T40 construct: purchased Ambit Biosciences (KINOMEscan)
T40 sequence (P68400 whole entry): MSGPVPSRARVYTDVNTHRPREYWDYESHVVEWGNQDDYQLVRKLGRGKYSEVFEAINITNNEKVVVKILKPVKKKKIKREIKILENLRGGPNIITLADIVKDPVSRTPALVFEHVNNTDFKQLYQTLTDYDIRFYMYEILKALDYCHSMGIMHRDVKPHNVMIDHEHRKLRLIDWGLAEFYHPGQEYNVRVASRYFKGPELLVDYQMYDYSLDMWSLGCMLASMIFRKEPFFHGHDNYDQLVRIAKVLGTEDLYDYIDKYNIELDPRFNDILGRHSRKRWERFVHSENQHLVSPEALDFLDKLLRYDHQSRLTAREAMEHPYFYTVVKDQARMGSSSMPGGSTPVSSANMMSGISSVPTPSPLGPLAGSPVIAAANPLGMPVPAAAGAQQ
From the text: as §1

## Fc1ccc(-c2c(-c3ccncc3)[nH]c3nccnc23)cc1 [RO1155697-000-005]
FLT1
  inhibition at 10 µM: < 50%
[1]
  inhibition at 10 µM: < 50%
LIMK1
  inhibition at 10 µM: < 50%
MEK2
  inhibition at 10 µM: < 50%
SgK110
  inhibition at 10 µM: < 50%
PIK3CD
  inhibition at 10 µM: < 50%
PKMYT1
  Percent Competition: <50%
PDGFRB
  inhibition at 10 µM: < 50%
ANKK1
  inhibition at 10 µM: < 50%
FGR
  inhibition at 10 µM: < 50%
MEK1
  inhibition at 10 µM: < 50%
PFTAIRE2
  inhibition at 10 µM: < 50%
PKN1
  inhibition at 10 µM: < 50%
TRKC
  inhibition at 10 µM: < 50%
DAPK2
  inhibition at 10 µM: < 50%
PAK1
  inhibition at 10 µM: < 50%
MYO3A
  inhibition at 10 µM: < 50%
[2]
  inhibition at 10 µM: < 50%
MAP4K5
  inhibition at 10 µM: < 50%
DCAMKL2
  inhibition at 10 µM: < 50%
TLK1
  inhibition at 10 µM: < 50%
MLK2
  inhibition at 10 µM: < 50%
IKK-alpha
  inhibition at 10 µM: < 50%
EPHA2
  inhibition at 10 µM: < 50%
[3]
  inhibition at 10 µM: < 50%
LKB1
  inhibition at 10 µM: < 50%
KIT(V559D,V654A)
  inhibition at 10 µM: < 50%
RIPK1
  inhibition at 10 µM: < 50%
TNK2
  inhibition at 10 µM: < 50%
FLT3(N841I)
  inhibition at 10 µM: < 50%
ULK2
  inhibition at 10 µM: < 50%
MAP3K4
  inhibition at 10 µM: < 50%
ERK5
  inhibition at 10 µM: < 50%
MLK3
  Percent Competition: <50%
TYRO3
  inhibition at 10 µM: < 50%
HIPK1
  inhibition at 10 µM: < 50%
MAPKAPK2
  inhibition at 10 µM: < 50%
NEK2
  inhibition at 10 µM: < 50%
FER
  inhibition at 10 µM: < 50%
CSNK2A1
  inhibition at 10 µM: < 50%
